Patent US8143263B2, “Therapeutic agents” (Astrazeneca AB, priority 2008, dated 2012)

What follows are compounds tested against T1, recombinant human pancreatic GLK (Homo sapiens, UniProt P35557) (assay: biochemical).
T1 sequence (P35557 1-465): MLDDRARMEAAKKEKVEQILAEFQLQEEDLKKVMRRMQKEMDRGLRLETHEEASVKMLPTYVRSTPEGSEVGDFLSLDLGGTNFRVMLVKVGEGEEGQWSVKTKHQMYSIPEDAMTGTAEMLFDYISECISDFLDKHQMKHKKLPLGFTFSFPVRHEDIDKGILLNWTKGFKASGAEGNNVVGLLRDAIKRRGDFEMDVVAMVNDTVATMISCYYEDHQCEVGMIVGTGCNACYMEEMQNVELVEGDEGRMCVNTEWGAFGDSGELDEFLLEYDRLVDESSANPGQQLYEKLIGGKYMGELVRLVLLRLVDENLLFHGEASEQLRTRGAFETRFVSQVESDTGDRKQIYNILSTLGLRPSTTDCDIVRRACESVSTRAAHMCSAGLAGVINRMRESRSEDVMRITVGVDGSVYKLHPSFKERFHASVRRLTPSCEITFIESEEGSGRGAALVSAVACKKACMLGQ

Row | SMILES | EC50 [µM]
1 | COCC[C@H](Oc1ncnc2c1cnn2-c1ccccc1OC)C(=O)Nc1ccc(C)cn1 [Example 24, (S)-4-methoxy-2-{[1-(2-methoxyphenyl)-1H-pyrazolo[3,4-d]pyrimidin-4-yl]oxy}-N-(5-methylpyridin-2-yl)butanamide] | 0.12
2 | COCCC(Oc1ncnc2c1cnn2-c1ccc(F)cc1F)C(=O)Nc1ccc(C)cn1 (centres unmarked) [Example 25, 2-{[1-(2,4-Difluorophenyl)-1H-pyrazolo[3,4-d]pyrimidin-4-yl]oxy}-4-methoxy-N-(5-methylpyridin-2-yl)butanamide] | 1.2
3 | COCC[C@@H](Oc1ncnc2c1cnn2-c1ccc(F)cc1F)C(=O)Nc1ccc(C)cn1 [Example 26, (R)-2-{[1-(2,4-Difluorophenyl)-1H-pyrazolo[3,4-d]pyrimidin-4-yl]oxy}-4-methoxy-N-(5-methylpyridin-2-yl)butanamide] | 35
4 | COCC[C@H](Oc1ncnc2c1cnn2-c1ccc(F)cc1F)C(=O)Nc1ccc(C)cn1 [Example 27, (S)-2-{[1-(2,4-difluorophenyl)-1H-pyrazolo[3,4-d]pyrimidin-4-yl]oxy}-4-methoxy-N-(5-methylpyridin-2-yl)butanamide] | 1
5 | COCCC(Oc1ncnc2c1cnn2-c1cccc(C)c1)C(=O)Nc1ccc(C)cn1 (centres unmarked) [Example 31, 4-Methoxy-2-{[1-(3-methylphenyl)-1H-pyrazolo[3,4-d]pyrimidin-4-yl]oxy}-N-(5-methylpyridin-2-yl)butanamide] | 0.35
6 | COCC[C@@H](Oc1ncnc2c1cnn2-c1cccc(C)c1)C(=O)Nc1ccc(C)cn1 [Example 32, (R)-4-Methoxy-2-{[1-(3-methylphenyl)-1H-pyrazolo[3,4-d]pyrimidin-4-yl]oxy}-N-(5-methylpyridin-2-yl)butanamide] | ≥ 100
7 | COCC[C@H](Oc1ncnc2c1cnn2-c1cccc(C)c1)C(=O)Nc1ccc(C)cn1 [Example 33, (S)-4-methoxy-2-{[1-(3-methylphenyl)-1H-pyrazolo[3,4-d]pyrimidin-4-yl]oxy}-N-(5-methylpyridin-2-yl)butanamide] | > 1.7
8 | COCCC(Oc1ncnc2c1cnn2-c1ccccn1)C(=O)Nc1ccc(C)cn1 (centres unmarked) [Example 34, 4-Methoxy-N-(5-methylpyridin-2-yl)-2-[(1-pyridin-2-yl-1H-pyrazolo[3,4-d]pyrimidin-4-yl)oxy]butanamide] | 1.9
9 | COCCC(Oc1ncnc2c1cnn2-c1ccccc1OC)C(=O)Nc1nc(C)cs1 (centres unmarked) [Example 35, 4-Methoxy-2-{[1-(2-methoxyphenyl)-1H-pyrazolo[3,4-d]pyrimidin-4-yl]oxy}-N-(4-methyl-1,3-thiazol-2-yl)butanamide] | 2.1
10 | COCC[C@@H](Oc1ncnc2c1cnn2-c1ccccc1OC)C(=O)Nc1nc(C)cs1 [Example 36, (R)-4-Methoxy-2-{[1-(2-methoxyphenyl)-1H-pyrazolo[3,4-d]pyrimidin-4-yl]oxy}-N-(4-methyl-1,3-thiazol-2-yl)butanamide] | ≥ 100
11 | COCC[C@H](Oc1ncnc2c1cnn2-c1ccccc1OC)C(=O)Nc1nc(C)cs1 [Example 37, (S)-4-methoxy-2-{[1-(2-methoxyphenyl)-1H-pyrazolo[3,4-d]pyrimidin-4-yl]oxy}-N-(4-methyl-1,3-thiazol-2-yl)butanamide] | 1.3
12 | CCCCC(Oc1ncnc2c1cnn2-c1ccccc1Cl)C(=O)Nc1ccc(C)cn1 (centres unmarked) [Example 38, 2-{[1-(2-chlorophenyl)-1H-pyrazolo[3,4-d]pyrimidin-4-yl]oxy}-N-(5-methylpyridin-2-yl)hexanamide] | 0.02
13 | CCCCC(Oc1ncnc2c1cnn2C)C(=O)Nc1ccc(C)cn1 (centres unmarked) [Example 39, 2-[(1-methyl-1H-pyrazolo[3,4-d]pyrimidin-4-yl)oxy]-N-(5-methylpyridin-2-yl)hexanamide] | 11
14 | CCCCC(Oc1ncnc2c1cnn2-c1ccccc1Cl)C(=O)Nc1cnc(C)cn1 (centres unmarked) [Example 40, 2-{[1-(2-chlorophenyl)-1H-pyrazolo[3,4-d]pyrimidin-4-yl]oxy}-N-(5-methylpyrazin-2-yl)hexanamide] | 0.14
15 | CCC(Oc1ncnc2c1cnn2-c1ccccc1OC)C(=O)Nc1ccc(C)cn1 (centres unmarked) [Example 42, 2-{[1-(2-Methoxyphenyl)-1H-pyrazolo[3,4-d]pyrimidin-4-yl]oxy}-N-(5-methylpyridin-2-yl)butanamide] | 0.41
16 | CC[C@@H](Oc1ncnc2c1cnn2-c1ccccc1OC)C(=O)Nc1ccc(C)cn1 [Example 43, (2R)-2-{[1-(2-Methoxyphenyl)-1H-pyrazolo[3,4-d]pyrimidin-4-yl]oxy}-N-(5-methylpyridin-2-yl)butanamide] | 4.2
17 | COc1ccccc1-n1ncc2c(OC(C)C(=O)Nc3ccc(C)cn3)ncnc21 (centres unmarked) [Example 44, 2-{[1-(2-Methoxyphenyl)-1H-pyrazolo[3,4-d]pyrimidin-4-yl]oxy}-N-(5-methylpyridin-2-yl)propanamide] | 3.4
18 | Cc1ccc(NC(=O)[C@H](CCN(C)C)Oc2ncnc3c2cnn3-c2ccccc2Cl)nc1 [Example 47, (2S)-2-{[1-(2-chlorophenyl)-1H-pyrazolo[3,4-d]pyrimidin-4-yl]oxy}-4-(dimethylamino)-N-(5-methylpyridin-2-yl)butanamide] | 1
19 | CC(=O)NCC(Oc1ncnc2c1cnn2-c1ccccc1Cl)C(=O)Nc1nc(C)cs1 (centres unmarked) [Example 48, 3-Acetamido-2-{[1-(2-chlorophenyl)-1h-pyrazolo[3,4-d]pyrimidin-4-yl]oxy}-n-(4-methyl-1,3-thiazol-2-yl)propanamide] | 11
20 | Cc1ccc(NC(=O)C(CCC(=O)O)Oc2ncnc3c2cnn3-c2ccccc2Cl)nc1 (centres unmarked) [Example 49, 4-{[1-(2-chlorophenyl)-1H-pyrazolo[3,4-d]pyrimidin-4-yl]oxy}-5-[(5-methylpyridin-2-yl)amino]-5-oxopentanoic acid] | 34
21 | Cc1ccc(NC(=O)C(CCC(N)=O)Oc2ncnc3c2cnn3-c2ccccc2Cl)nc1 (centres unmarked) [Example 50, 2-{[1-(2-chlorophenyl)-1H-pyrazolo[3,4-d]pyrimidin-4-yl]oxy}-N1-(5-methylpyridin-2-yl)pentanediamide] | 0.59
22 | CNC(=O)CCC(Oc1ncnc2c1cnn2-c1ccccc1Cl)C(=O)Nc1ccc(C)cn1 (centres unmarked) [Example 51, 2-{[1-(2-chlorophenyl)-1H-pyrazolo[3,4-d]pyrimidin-4-yl]oxy}-N5-methyl-N1-(5-methylpyridin-2-yl)pentanediamide] | 4.4
23 | COCCOCCC(Sc1ncnc2c1cnn2-c1ccccc1Cl)C(=O)Nc1nc(C)cs1 (centres unmarked) [Example 52, 2-{[1-(2-chlorophenyl)-1H-pyrazolo[3,4-d]pyrimidin-4-yl]thio}-4-(2-methoxyethoxy)-N-(4-methyl-1,3-thiazol-2-yl)butanamide] | 2.9
24 | COCCC(Sc1ncnc2c1cnn2-c1ccccc1Cl)C(=O)Nc1nc(C)cs1 (centres unmarked) [Example 53, 2-{[1-(2-chlorophenyl)-1H-pyrazolo[3,4-d]pyrimidin-4-yl]thio}-4-methoxy-N-(4-methyl-1,3-thiazol-2-yl)butanamide] | 0.78
25 | CCC(C)C(Sc1ncnc2c1cnn2-c1ccccc1Cl)C(=O)Nc1nc(C)cs1 (centres unmarked) [Example 54, 2-{[1-(2-chlorophenyl)-1H-pyrazolo[3,4-d]pyrimidin-4-yl]thio}-3-methyl-N-(4-methyl-1,3-thiazol-2-yl)pentanamide] | 4
26 | CCC(C)C(Sc1ncnc2c1cnn2-c1ccccc1Cl)C(=O)Nc1ccon1 (centres unmarked) [Example 55, 2-{[1-(2-chlorophenyl)-1H-pyrazolo[3,4-d]pyrimidin-4-yl]thio}-N-isoxazol-3-yl-3-methylpentanamide] | > 20
